# Test results from patent publication US11976083B2, “Inhibitors of peptidylarginine deiminases” (Gilead Sciences, Inc., priority 2020, dated 2024).
# pIC50: −log10 of the molar value.
# Target: T1, human PAD4 (Homo sapiens, UniProt Q9UM07)
# T1 construct: human PAD4 (NM_012387), A2-P663, was PCR amplified; His-SUMO (N, cleaved yes); made in house; host or cells: E. coli BL21(DE3)
# Experiment: In vitro PAD4 BAEE biochemical assay
# Conditions: BAEE substrate 3 mM, 5 nM PAD4, 2 mM calcium chloride; geometric mean of multiple experiments
# How it was run: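 PAD4 5 nM, CaCl2 2 mM, BAEE 3 mM final; 50 mM MOPS pH 7.6, 50 mM NaCl, 0.05% Tween-20, 2 mM DTT. Cpd + enzyme 30 min 25 °C; substrate 2 h 25 °C; EDTA stop; OPA detection 1 h. IC50 4-parameter fit.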
# T1 sequence (Q9UM07 2-663): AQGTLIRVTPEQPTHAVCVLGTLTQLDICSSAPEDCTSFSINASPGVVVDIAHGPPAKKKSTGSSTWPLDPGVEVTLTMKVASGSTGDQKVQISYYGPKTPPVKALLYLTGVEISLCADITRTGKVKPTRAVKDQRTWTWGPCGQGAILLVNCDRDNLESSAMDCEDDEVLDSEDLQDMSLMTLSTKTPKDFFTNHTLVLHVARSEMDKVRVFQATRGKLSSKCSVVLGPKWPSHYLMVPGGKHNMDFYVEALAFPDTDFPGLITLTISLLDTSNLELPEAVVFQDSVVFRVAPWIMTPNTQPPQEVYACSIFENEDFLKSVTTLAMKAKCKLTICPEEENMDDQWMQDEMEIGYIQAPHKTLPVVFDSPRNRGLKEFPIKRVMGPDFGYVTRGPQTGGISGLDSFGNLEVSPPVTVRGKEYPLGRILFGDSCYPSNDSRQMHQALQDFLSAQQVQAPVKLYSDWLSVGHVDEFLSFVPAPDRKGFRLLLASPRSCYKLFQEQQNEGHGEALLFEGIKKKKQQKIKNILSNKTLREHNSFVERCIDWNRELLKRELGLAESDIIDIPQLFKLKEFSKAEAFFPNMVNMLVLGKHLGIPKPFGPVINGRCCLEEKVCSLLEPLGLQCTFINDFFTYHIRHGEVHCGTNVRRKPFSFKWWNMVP
row,pIC50,SMILES
1,7.49,"[2H]C([2H])([2H])O[C@@H]1CCN(C(=O)c2cc(OC)c3c(c2)nc(-c2cc4ccc5nc4n2CCCCCc2cncc(F)c2C(=O)N[C@@H]5C)n3C)C[C@@H]1N [Example 659, (2~{R})-17-[5-[(3~{S),4~{R})-3-amino-4-(trideuteriomethoxy)piperidine-1-carbonyl]-7-methoxy-1-methyl-benzimidazol-2-yl]-6-fluoro-2-methyl-3,8,16,22-tetrazatetracyclo[14.5.2.0^ {5,10}.0^{19,23}] tricosa-1(22),5,7,9,17,19(23), 20-heptaen-4-one]"
2,7.55,"COc1cc(C(=O)N2C[C@H](N)[C@@H]3CC[C@H]2C3)cc2nc(-c3cc4ccc5nc4n3CC(F)(F)CCC[C@@H]3C[C@H]3C(=O)N[C@@H]5C)n(C3CC3)c12 [Example 766, (2~{R},5~{R},7~{R})-14-[5-[(1~{S},4~{R},5~{R})-4-amino-2-azabicyclo[3.2.1]octane-2-carbonyl]-1-cyclopropyl-7-methoxy-benzimidazol-2-yl]-11,11-difluoro-2-methyl-3,13,19-triazatetracyclo [11.5.2.0^{5,7}.0^{16,20}] icosa-1(19),14,16(20),17-tetraen-4-one]"
3,7.20,"COc1cc(C(=O)N2[C@H]3CC[C@@H]2[C@H](N)C3)cc2nc(-c3cc4ccc5nc4n3CCCCCOC(C)(C)C(=O)N[C@@H]5C)n(C)c12 [Example 21, (11~{R})-17-[5-[(1~{R},2~{R},4~{S})-2-amino-7-azabicyclo[2.2.1]heptane-7-carbonyl]-7-methoxy-1-methyl-benzimidazol-2-yl]-8,8,11-trimethyl-7-oxa-1,10,19-triazatricyclo[10.5.2.0^{15,18}]nonadeca-12(19),13,15(18),16-tetraen-9-one]"
4,7.03,"COc1cc(C(=O)N2C[C@H]3CC[C@@H]2[C@@H]3N)cc2nc(-c3cc4ccc5nc4n3CCCCCC[C@](C)(C(F)(F)F)C(=O)N[C@@H]5C)n(C)c12 [Example 724, (8~{S},11~{R})-17-[5-[(1~{R},4~{R},7~{R})-7-amino-2-azabicyclo[2.2.1]heptane-2-carbonyl]-7-methoxy-1-methyl-benzimidazol-2-yl]-8,11-dimethyl-8-(trifluoromethyl)-1,10,19-triazatricyclo [10.5.2.0^{15,18}]nonadeca-12(19),13,15(18),16-tetraen-9-one]"
5,7.92,"COc1cc(C(=O)N2[C@H]3CC[C@@H]2[C@H](N)C3)cc2nc(-c3cc4ccc5nc4n3C/C=C\CCCCC(=O)N[C@@H]5C)c(C)n12 [Example 123, (3~{2},11~{R})-17-[7-[(1~{R},2~{R},4~{S})-2-amino-7-azabicyclo[2.2.1]heptane-7-carbonyl]-5-methoxy-3-methyl-imidazo[1,2-a]pyridin-2-yl]-11-methyl-1,10,19-triazatricyclo[10.5.2.0^{15,18}]nonadeca-3,12(19),13,15(18),16-pentaen-9-one]"
6,7.80,"COc1cc(C(=O)N2[C@H]3CC[C@@H]2[C@H](N)C3)cc2nc(-c3cc4ccc5nc4n3CCCCCC[C@@H](C)C(=O)N[C@@H]5C)c(C)n12 [Example 122, (8~{R},11~{R})-17-[7-[(1~{R},2~{R},4~{S})-2-amino-7-azabicyclo[2.2.1]heptane-7-carbonyl]-5-methoxy-3-methyl-imidazo[1,2-a]pyridin-2-yl]-8,11-dimethyl-1,10,19-triazatricyclo[10.5.2.0^{15,18}]nonadeca-12(19),13,15(18),16-tetraen-9-one]"
7,7.74,"CO[C@@H]1CCN(C(=O)c2ccc3c(c2)nc(-c2cc4ccc5nc4n2CCCCCc2nc(Cl)ccc2C(=O)N[C@@H]5C)n3C2CC2)C[C@@H]1N [Example 693, (2~{R})-17-[5-[(3~{S},4~ {R})-3-amino-4-methoxy-piperidine-1-carbonyl]-1-cyclopropyl-benzimidazol-2-yl]-8-chloro-2-methyl-3,9,16,22-tetrazatetracyclo [14.5.2.0^{5,10}.0^ {19,23}]tricosa-1(22), 5(10),6,8,17,19(23), 20-heptaen-4-one]"
8,7.10,"COc1cc(C(=O)N2[C@H]3CC[C@@H]2[C@H](N)C3)cc2nc(-c3cc4ccc5nc4n3CCC3(CCOCC(=O)N[C@@H]5C)CC3)c(C)n12 [Example 330, (11~{R})-17-[7-[(1~{R},2~{R},4~{S})-2-amino-7-azabicyclo[2.2.1]heptane-7-carbonyl]-5-methoxy-3-methyl-imidazo[1,2-a]pyridin-2-yl]-11-methyl-spiro[7-oxa-1,10,19-triazatricyclo[10.5.2.0^{15,18}]nonadeca-12(19),13,15(18),16-tetraene-4,1′-cyclopropane]-9-one]"
9,7.31,"COc1cc(C(=O)N2C[C@H](N)[C@@H]3CC[C@H]2C3)cc2nc(-c3cc4ccc5nc4n3CCCCCc3cc(F)c(F)cc3C(=O)N[C@@H]5C)n(C)c12 [Example 927, (2~{R})-17-[5-[(1~{S},4~{R}, 5~{R})-4-amino-2-azabicyclo [3.2.1]octane-2-carbonyl]-7-methoxy-1-methyl-benzimidazol-2-yl]-7,8-difluoro-2-methyl-3,16,22-triazatetracyclo[14.5.2.0^ {5,10}.0^{19,23}]tricosa-1(22),5(10),6,8,17,19(23),20-heptaen-4-one]"
10,7.17,"COc1cc(C(=O)N2C[C@H]3CC[C@@H]2[C@@H]3N)cc2nc(-c3cc4ccc5nc4n3CCCCCCCC(=O)N[C@@H]5C)c(C)n12 [Example 302, (11~{R})-17-[7-[(1~{R},4~{R},7~{R})-7-amino-2-azabicyclo[2.2.1]heptane-2-carbonyl]-5-methoxy-3-methyl-imidazo[1,2-a]pyridin-2-yl]-11-methyl-1,10,19-triazatricyclo[10.5.2.0^{15,18}]nonadeca-12(19),13,15(18),16-tetraen-9-one]"
11,6.82,"COc1cc(C(=O)N[C@H]2CNCC[C@@H]2F)cc2nc(-c3cc4ccc5nc4n3CCCCCCC3(CC(F)(F)C3)C(=O)N[C@@H]5C)n(C)c12 [Example 400, 2-[(11~{R})-1′,1′-difluoro-11-methyl-9-oxo-spiro[1,10,19-triazatricyclo[10.5.2.0^{15,18}]nonadeca-12(19),13,15(18),16-tetraene-8,3′-cyclobutane]-17-yl]-~{N}-[(3~{S},4~{S})-4-fluoro-3-piperidyl]-7-methoxy-1-methyl-benzimidazole-5-carboxamide]"
12,6.74,"COc1cc(C(=O)N2CC[C@@H](OC)[C@@H](N)C2)cc2nc(-c3cc4ccc5nc4n3C[C@H]3C[C@H]3CCC[C@@](C)(C(F)(F)F)C(=O)N[C@@H]5C)n(C)c12 [Example 372, (3~{S},5~{R},9~{R},12~{R})-18-[5-[(3~{S},4~{R})-3-amino-4-methoxy-piperidine-1-carbonyl]-7-methoxy-1-methyl-benzimidazol-2-yl]-9,12-dimethyl-9-(trifluoromethyl)-1,11,20-triazatetracyclo[11.5.2.0^{3,5}.0^{16,19}] icosa-13(20),14,16(19),17-tetraen-10-one]"
13,7.74,"COc1cc(C(=O)N2C[C@H](N)[C@@H]3CC[C@H]2C3)cc2nc(-c3cc4ccc5nc4n3CCCCC[C@@H]3C[C@H]3C(=O)N[C@@H]5C)n(C3CC3)c12 [Example 767, (2~{R},5~{R},7~{R})-14-[5-[(1~{S},4~{R},5~{R})-4-amino-2-azabicyclo[3.2.1]octane-2-carbonyl]-1-cyclopropyl-7-methoxy-benzimidazol-2-yl]-2-methyl-3,13,19-triazatetracyclo[11.5.2.0^ {5,7}.0^{16,20}]icosa-1(19),14,16(20),17-tetraen-4-one]"
14,7.60,"COc1cc(C(=O)N2[C@H]3CC[C@@H]2[C@H](N)C3)cc2nc(-c3cc4ccc5nc4n3CCCCCC(C)(C)C(=O)N[C@@H]5C)c(C)n12 [Example 126, (10~{R})-16-[7-[(1~{R},2~{R},4~{S})-2-amino-7-azabicyclo[2.2.1]heptane-7-carbonyl]-5-methoxy-3-methyl-imidazo[1,2-a]pyridin-2-yl]-7,7,10-trimethyl-1,9,18-triazatricyclo[9.5.2.0^{14,17}]octadeca-11(18),12,14(17),15-tetraen-8-one]"
15,7.05,"COc1cc(C(=O)N2CCC[C@@H](N)C2)cc2nc(-c3cc4ccc5nc4n3C[C@@H]3C[C@H]3CC[C@H]3C[C@@H]3C(=O)N[C@@H]5C)n(C)c12 [Example 167, (3~{R},5~{R},8~{S},10~{S},13~{R})-19-[5-[(3~{R})-3-aminopiperidine-1-carbonyl]-7-methoxy-1-methyl-benzimidazol-2-yl]-13-methyl-1,12,21-triazapentacyclo[12.5.2.0^{3,5}.0^{8,10}.0^ {17,20}]henicosa-14(21),15,17(20),18-tetraen-11-one]"
16,6.47,"COc1cc(C(=O)N2CC[C@@H](OC)[C@@H](N)C2)cc2nc(-c3cc4ccc5nc4n3CCCCCCC(C)(C)C(=O)NC5C3CC3)n(C)c12 (some centres unmarked) [Example 778, 17-[5-[(3~{S),4~{R})-3-amino-4-methoxy-piperidine-1-carbonyl]-7-methoxy-1-methyl-benzimidazol-2-yl]-11-cyclopropyl-8,8-dimethyl-1,10,19-triazatricyclo [10.5.2.0^{15,18}]nonadeca-12,14,16,18-tetraen-9-one]"
17,6.85,"COc1cc(C(=O)N2CC[C@@H](OC)[C@@H](N)C2)cc2nc(-c3cc4ccc5nc4n3CCCCCc3cc4ccccc4nc3C(=O)N[C@@H]5C)n(C)c12 [Example 731, (2~{R})-21-[5-[(3~{S},4~{R})-3-amino-4-methoxy-piperidine-1-carbonyl]-7-methoxy-1-methyl-benzimidazol-2-yl]-2-methyl-3,6,20,26-tetrazapentacyclo[18.5.2.0^ {5,14}.0^{7,12}.0^{23,27}] heptacosa-1(26),5(14), 6,8,10,12,21,23(27),24-nonaen-4-one]"
